Assay results reported in patent US10323007B1, “N2N N4-disubstituted quinazoline-2,4-diamines and uses thereof” (University of South Florida, priority 2016, dated 2019).
In brackets after ≈: the same amount, converted by molar mass.

Test system: A. baumannii 1403 biofilm
Experiment: biofilm eradication determination assay, strain 1403
Assay type: cell-based, Acinetobacter baumannii
Details: 90% biofilm eradication, Table 8
Experimental: (§1) These assays were performed as described by us previously,^26,24 as follows. Each of the A. baumannii strains were grown overnight in Mueller Hinton Broth (MHB). The next day these were used to seed fresh MHB to an OD600 of 0.5, with 150 μL then added to the wells of a 96 well plate and grown for 24 hours at 37° C. After 24 hours, the planktonic bacteria were carefully removed and fresh MHB was added with increasing concentrations of lead quinazolines. After incubation at 37° C. for 24 hours, planktonic cells were removed and biofilms were washed three times with phosphate buffered saline (PBS). Biofilms were then resuspended in PBS and plated for cell viability on tryptic soy agar. Biofilm recovery was assessed compared to no drug controls, and determined as percent eradication. This was used to determine MBEC90 values (Minimal Biofilm Eradication Concentration), where the viability of cells within the biofilm was reduced by 90%.

Compound | MBEC90 1403 [µM]
CCC/C=C/c1ccc2nc(NCc3ccccc3)nc(NC)c2c1 [Compound 26, (E)-N^2-Benzyl-N^4-methyl-6-(pent-1-en-1-yl)quinazoline-2,4-diamine] | 24

Test system: A. baumannii 1651
Experiment: minimal bactericidal concentration (MBC) assay, strain 1651
Assay type: cell-based
Details: Acinetobacter baumannii, Table 8, read-out: MBC90 1651
Text: (§2) Lead quinazolines 4, 5, 26, 29, 27, and 30 were selected to be further evaluated for antimicrobial effects. The first assay utilized was a minimal bactericidal concentration (MBC) assay, to assess whether leads compounds were bacteriostatic or bactericidal. The six lead agents were screened to identify their MBC90 towards each of the six A. baumannii isolates used in the SAR studies (Table 8), however for simplicity only the representative data for isolate 1646 is detailed below (Table 6). […] Further to this, we were able to obtain complete eradication of bacterial growth for these two compounds at 1 μM for 24 and 5 μM for 25.
(§3) MIC and MBC assays were performed in this study as documented by us previously.^17,23,24,25 The A. baumannii strains used are detailed in Table 7.

Compound | MBC [µM]
CCC/C=C/c1ccc2nc(NCc3ccccc3)nc(NC)c2c1 [Compound 26, (E)-N^2-Benzyl-N^4-methyl-6-(pent-1-en-1-yl)quinazoline-2,4-diamine] | 5.7 (≈ 1.89 µg/mL)

Test system: A. baumannii 1646
Experiment: MIC assay, strain 1646
Assay type: cell-based, Acinetobacter baumannii
Details: Acinetobacter baumannii; Table 6; representative data for isolate 1646; read-out: MIC
Experimental: as §3

Compound | MIC [µM]
CCC/C=C/c1ccc2nc(NCc3ccccc3)nc(NC)c2c1 [Compound 26, (E)-N^2-Benzyl-N^4-methyl-6-(pent-1-en-1-yl)quinazoline-2,4-diamine] | 1 (≈ 0.332 µg/mL)

Same assay, conditions: Acinetobacter baumannii; strain 1646; Tables 1, 3, 4, 5 and footnotes; read-out: 1646 MIC

Compound | MIC [µM]
CCC/C=C/c1ccc2nc(NCc3ccccc3)nc(NC)c2c1 [Compound 26, (E)-N^2-Benzyl-N^4-methyl-6-(pent-1-en-1-yl)quinazoline-2,4-diamine] | 2 (≈ 0.665 µg/mL)

Same assay, conditions: Acinetobacter baumannii; strain 1646; lead quinazolines, Table 8; read-out: MIC 1646

Compound | MIC [µM]
CCC/C=C/c1ccc2nc(NCc3ccccc3)nc(NC)c2c1 [Compound 26, (E)-N^2-Benzyl-N^4-methyl-6-(pent-1-en-1-yl)quinazoline-2,4-diamine] | 1 (≈ 0.332 µg/mL)

Test system: A. baumannii 1650 biofilm
Experiment: biofilm eradication determination assay, strain 1650
Assay type: cell-based, Acinetobacter baumannii
Details: 90% biofilm eradication, Table 8
Experimental: as §1

Compound | MBEC90 1650 [µM]
CCC/C=C/c1ccc2nc(NCc3ccccc3)nc(NC)c2c1 [Compound 26, (E)-N^2-Benzyl-N^4-methyl-6-(pent-1-en-1-yl)quinazoline-2,4-diamine] | 50

Test system: A. baumannii 1651 biofilm
Experiment: biofilm eradication determination assay, strain 1651
Assay type: cell-based, Acinetobacter baumannii
Details: 90% biofilm eradication, Table 8
Experimental: as §1

Compound | MBEC90 1651 [µM]
CCC/C=C/c1ccc2nc(NCc3ccccc3)nc(NC)c2c1 [Compound 26, (E)-N^2-Benzyl-N^4-methyl-6-(pent-1-en-1-yl)quinazoline-2,4-diamine] | 24

Test system: A. baumannii 1646 biofilm
Experiment: biofilm eradication determination assay, strain 1646
Assay type: cell-based, Acinetobacter baumannii
Details: Table 6; representative data for isolate 1646
Experimental: as §1

Compound | MBEC90 [µM]
CCC/C=C/c1ccc2nc(NCc3ccccc3)nc(NC)c2c1 [Compound 26, (E)-N^2-Benzyl-N^4-methyl-6-(pent-1-en-1-yl)quinazoline-2,4-diamine] | 8.9

Same assay, conditions: at 50 μM; strain 1646

Compound | reduction in biofilm viability [log]
CCC/C=C/c1ccc2nc(NCc3ccccc3)nc(NC)c2c1 [Compound 26, (E)-N^2-Benzyl-N^4-methyl-6-(pent-1-en-1-yl)quinazoline-2,4-diamine] | 1.4

Same assay, conditions: strain 1646; 90% biofilm eradication; Table 8 and text

Compound | MBEC90 1646 [µM]
CCC/C=C/c1ccc2nc(NCc3ccccc3)nc(NC)c2c1 [Compound 26, (E)-N^2-Benzyl-N^4-methyl-6-(pent-1-en-1-yl)quinazoline-2,4-diamine] | 8.9

Test system: A. baumannii 1403
Experiment: minimal bactericidal concentration (MBC) assay, strain 1403
Assay type: cell-based
Details: Acinetobacter baumannii, Table 8, read-out: MBC90 1403
Text: as §2, §3

Compound | MBC [µM]
CCC/C=C/c1ccc2nc(NCc3ccccc3)nc(NC)c2c1 [Compound 26, (E)-N^2-Benzyl-N^4-methyl-6-(pent-1-en-1-yl)quinazoline-2,4-diamine] | 40 (≈ 13.3 µg/mL)

Test system: A. baumannii 1649
Experiment: minimal bactericidal concentration (MBC) assay, strain 1649
Assay type: cell-based
Details: Acinetobacter baumannii, Table 8, read-out: MBC90 1649
Text: as §2, §3

Compound | MBC [µM]
CCC/C=C/c1ccc2nc(NCc3ccccc3)nc(NC)c2c1 [Compound 26, (E)-N^2-Benzyl-N^4-methyl-6-(pent-1-en-1-yl)quinazoline-2,4-diamine] | 10 (≈ 3.32 µg/mL)

Test system: A. baumannii 1646
Experiment: minimal bactericidal concentration (MBC) assay, strain 1646
Assay type: cell-based, Acinetobacter baumannii
Details: Acinetobacter baumannii, 1646, strain 1646; Table 8 and text; read-out: MBC90 1646
Text: as §2, §3

Compound | MBC [µM]
CCC/C=C/c1ccc2nc(NCc3ccccc3)nc(NC)c2c1 [Compound 26, (E)-N^2-Benzyl-N^4-methyl-6-(pent-1-en-1-yl)quinazoline-2,4-diamine] | 1.8 (≈ 0.598 µg/mL)

Same assay, conditions: Acinetobacter baumannii; Table 6; representative data for isolate 1646; read-out: MBC90

Compound | MBC [µM]
CCC/C=C/c1ccc2nc(NCc3ccccc3)nc(NC)c2c1 [Compound 26, (E)-N^2-Benzyl-N^4-methyl-6-(pent-1-en-1-yl)quinazoline-2,4-diamine] | 1.8 (≈ 0.598 µg/mL)

Same assay, conditions: isolate 1646

Compound | complete bacterial eradication concentration as multiple of MIC [×] | concentration giving complete eradication of bacterial growth [µM]
CCC/C=C/c1ccc2nc(NCc3ccccc3)nc(NC)c2c1 [Compound 26, (E)-N^2-Benzyl-N^4-methyl-6-(pent-1-en-1-yl)quinazoline-2,4-diamine] | 5 | 5

Test system: A. baumannii 1650
Experiment: MIC assay, strain 1650
Assay type: cell-based, Acinetobacter baumannii
Details: Acinetobacter baumannii; strain 1650; Tables 1, 3, 4, 5 and footnotes; read-out: 1650 MIC
Experimental: as §3

Compound | MIC [µM]
CCC/C=C/c1ccc2nc(NCc3ccccc3)nc(NC)c2c1 [Compound 26, (E)-N^2-Benzyl-N^4-methyl-6-(pent-1-en-1-yl)quinazoline-2,4-diamine] | 25 (≈ 8.31 µg/mL)

Same assay, conditions: Acinetobacter baumannii; strain 1650; lead quinazolines, Table 8; read-out: MIC 1650

Compound | MIC [µM]
CCC/C=C/c1ccc2nc(NCc3ccccc3)nc(NC)c2c1 [Compound 26, (E)-N^2-Benzyl-N^4-methyl-6-(pent-1-en-1-yl)quinazoline-2,4-diamine] | 25 (≈ 8.31 µg/mL)

Test system: A. baumannii 1649
Experiment: MIC assay, strain 1649
Assay type: cell-based, Acinetobacter baumannii
Details: Acinetobacter baumannii; strain 1649; Tables 1, 3, 4, 5 and footnotes; read-out: 1649 MIC
Experimental: as §3

Compound | MIC [µM]
CCC/C=C/c1ccc2nc(NCc3ccccc3)nc(NC)c2c1 [Compound 26, (E)-N^2-Benzyl-N^4-methyl-6-(pent-1-en-1-yl)quinazoline-2,4-diamine] | 10 (≈ 3.32 µg/mL)

Same assay, conditions: Acinetobacter baumannii; strain 1649; lead quinazolines, Table 8; read-out: MIC 1649

Compound | MIC [µM]
CCC/C=C/c1ccc2nc(NCc3ccccc3)nc(NC)c2c1 [Compound 26, (E)-N^2-Benzyl-N^4-methyl-6-(pent-1-en-1-yl)quinazoline-2,4-diamine] | 10 (≈ 3.32 µg/mL)

Test system: A. baumannii 1651
Experiment: MIC assay, strain 1651
Assay type: cell-based, Acinetobacter baumannii
Details: Acinetobacter baumannii; strain 1651; Tables 1, 3, 4, 5 and footnotes; read-out: 1651 MIC
Experimental: as §3

Compound | MIC [µM]
CCC/C=C/c1ccc2nc(NCc3ccccc3)nc(NC)c2c1 [Compound 26, (E)-N^2-Benzyl-N^4-methyl-6-(pent-1-en-1-yl)quinazoline-2,4-diamine] | 2 (≈ 0.665 µg/mL)

Same assay, conditions: Acinetobacter baumannii; strain 1651; lead quinazolines, Table 8; read-out: MIC 1651

Compound | MIC [µM]
CCC/C=C/c1ccc2nc(NCc3ccccc3)nc(NC)c2c1 [Compound 26, (E)-N^2-Benzyl-N^4-methyl-6-(pent-1-en-1-yl)quinazoline-2,4-diamine] | 2 (≈ 0.665 µg/mL)

Test system: A. baumannii 1652
Experiment: minimal bactericidal concentration (MBC) assay, strain 1652
Assay type: cell-based
Details: Acinetobacter baumannii, Table 8, read-out: MBC90 1652
Text: as §2, §3

Compound | MBC [µM]
CCC/C=C/c1ccc2nc(NCc3ccccc3)nc(NC)c2c1 [Compound 26, (E)-N^2-Benzyl-N^4-methyl-6-(pent-1-en-1-yl)quinazoline-2,4-diamine] | 23 (≈ 7.65 µg/mL)

Test system: A. baumannii 1403
Experiment: MIC assay, strain 1403
Assay type: cell-based, Acinetobacter baumannii
Details: Acinetobacter baumannii; strain 1403; Tables 1, 3, 4, 5 and footnotes; read-out: 1403 MIC
Experimental: as §3

Compound | MIC [µM]
CCC/C=C/c1ccc2nc(NCc3ccccc3)nc(NC)c2c1 [Compound 26, (E)-N^2-Benzyl-N^4-methyl-6-(pent-1-en-1-yl)quinazoline-2,4-diamine] | 10 (≈ 3.32 µg/mL)

Same assay, conditions: Acinetobacter baumannii; strain 1403; lead quinazolines, Table 8; read-out: MIC 1403

Compound | MIC [µM]
CCC/C=C/c1ccc2nc(NCc3ccccc3)nc(NC)c2c1 [Compound 26, (E)-N^2-Benzyl-N^4-methyl-6-(pent-1-en-1-yl)quinazoline-2,4-diamine] | 10 (≈ 3.32 µg/mL)

Test system: A. baumannii 1650
Experiment: minimal bactericidal concentration (MBC) assay, strain 1650
Assay type: cell-based
Details: Acinetobacter baumannii, Table 8, read-out: MBC90 1650
Text: as §2, §3

Compound | MBC [µM]
CCC/C=C/c1ccc2nc(NCc3ccccc3)nc(NC)c2c1 [Compound 26, (E)-N^2-Benzyl-N^4-methyl-6-(pent-1-en-1-yl)quinazoline-2,4-diamine] | 16 (≈ 5.32 µg/mL)

Test system: A. baumannii 1652 biofilm
Experiment: biofilm eradication determination assay, strain 1652
Assay type: cell-based, Acinetobacter baumannii
Details: 90% biofilm eradication, Table 8
Experimental: as §1

Compound | MBEC90 1652 [µM]
CCC/C=C/c1ccc2nc(NCc3ccccc3)nc(NC)c2c1 [Compound 26, (E)-N^2-Benzyl-N^4-methyl-6-(pent-1-en-1-yl)quinazoline-2,4-diamine] | 97

Test system: A. baumannii 1649 biofilm
Experiment: biofilm eradication determination assay, strain 1649
Assay type: cell-based, Acinetobacter baumannii
Details: 90% biofilm eradication, Table 8
Experimental: as §1

Compound | MBEC90 1649 [µM]
CCC/C=C/c1ccc2nc(NCc3ccccc3)nc(NC)c2c1 [Compound 26, (E)-N^2-Benzyl-N^4-methyl-6-(pent-1-en-1-yl)quinazoline-2,4-diamine] | 63

Test system: human HepG2 cells
Experiment: not given
Assay type: cell-based
Details: at 12 μM
Experimental: Cytotoxicity assays were performed using human HepG2 cells (human liver epithelial with hepatocellular carcinoma), as described by us previously.^17,24 Cells were cultured in Dulbecco's modified eagle medium (DMEM), supplemented with 10% fetal bovine serum and 1% penicillin-streptomycin for 3 days at 37° C. and 5% CO2. Cells were then diluted to 1×10^5 ml^−1 using fresh DMEM and added to 96 well tissue culture plates at a volume of 100 μL. Plates were incubated for 24 hours at 37° C. and 5% CO2, allowing the cells to adhere to the plastic. […] Plates were then incubated for 48 hours at 37° C. and 5% CO2. After 48 hours the DMEM was removed and 100 μL of new media was added containing MTT (3-(4, 5-dimethylthiazol-2-yl)-2, 5-diphenyltetrazolium bromide), followed by incubation for four hours at 37° C. and 5% CO2. […] Lead compounds were solvated in 100% DMSO for these studies, which served as the negative control. LD50 values were determined for each compound by comparison to vehicle only controls.

Compound | HepG2 cell viability [%]
CCC/C=C/c1ccc2nc(NCc3ccccc3)nc(NC)c2c1 [Compound 26, (E)-N^2-Benzyl-N^4-methyl-6-(pent-1-en-1-yl)quinazoline-2,4-diamine] | 49

Same assay, conditions: at 25 μM (highest concentration tested)

Compound | HepG2 cell viability [%]
CCC/C=C/c1ccc2nc(NCc3ccccc3)nc(NC)c2c1 [Compound 26, (E)-N^2-Benzyl-N^4-methyl-6-(pent-1-en-1-yl)quinazoline-2,4-diamine] | 41

Same assay, conditions: human, 48 h

Compound | LD50(HepG2) [µM]
CCC/C=C/c1ccc2nc(NCc3ccccc3)nc(NC)c2c1 [Compound 26, (E)-N^2-Benzyl-N^4-methyl-6-(pent-1-en-1-yl)quinazoline-2,4-diamine] | 16

Test system: A. baumannii 1652
Experiment: MIC assay, strain 1652
Assay type: cell-based, Acinetobacter baumannii
Details: Acinetobacter baumannii; strain 1652; Tables 1, 3, 4, 5 and footnotes; read-out: 1652 MIC
Experimental: as §3

Compound | MIC [µM]
CCC/C=C/c1ccc2nc(NCc3ccccc3)nc(NC)c2c1 [Compound 26, (E)-N^2-Benzyl-N^4-methyl-6-(pent-1-en-1-yl)quinazoline-2,4-diamine] | 30 (≈ 9.97 µg/mL)

Same assay, conditions: Acinetobacter baumannii; strain 1652; lead quinazolines, Table 8; read-out: MIC 1652

Compound | MIC [µM]
CCC/C=C/c1ccc2nc(NCc3ccccc3)nc(NC)c2c1 [Compound 26, (E)-N^2-Benzyl-N^4-methyl-6-(pent-1-en-1-yl)quinazoline-2,4-diamine] | 30 (≈ 9.97 µg/mL)
